Assay results reported in ChEMBL document CHEMBL1764981, “Coumarin-purine ribofuranoside conjugates as new agents against hepatitis C virus” (J Med Chem, 2011).
pEC50: −log10 of the molar value. ≈ marks a conversion by molar mass, not a printed value. Calls of active or inactive are those of the source. The calls are words filed in the database; no cut-off is given here.

How the values were obtained:
[1] = Selectivity index, ratio of CC50 for human Huh5-2 cells to EC50 for Hepatitis C virus; assay type: toxicity, cell-based, Huh-5-2; settings: read-out: Ratio CC50/EC50
Hepatitis C virus [2] = assay: Antiviral activity against Hepatitis C virus infected in human Huh5-2 cells assessed as […] by viral RNA (luciferase) assay; assay type: functional, organism-based, Hepacivirus hominis; settings: Huh-5-2
Huh-5-2 = assay: Cytotoxicity against human Huh5-2 cells assessed as microscopically detectable alteration in cell morphology by cytostatic determination assay; assay type: functional
Hepatitis C virus [3] = assay: Antiviral activity against Hepatitis C virus; assay type: functional, organism-based; settings: Hepacivirus hominis
[4] = Solubility of compound in water by HPLC-UV method; assay type: physicochemical

Structure (SMILES) | pEC50 (Hepatitis C virus [2]) | solubility [4] | selectivity ratio [1] | CC50 (Huh-5-2) | Activity (Hepatitis C virus [3])
CC(=O)OC[C@H]1O[C@@H](n2c(SCc3cc4cc(C)ccc4oc3=O)nc3cncnc32)[C@H](OC(C)=O)[C@@H]1OC(C)=O | 5.11 |  | 2.1 | 16 µM | 
CC(=O)OC[C@H]1O[C@@H](n2c(SCc3cc4ccccc4oc3=O)nc3cncnc32)[C@H](OC(C)=O)[C@@H]1OC(C)=O | 5.18 |  | 5.9 | 39 µM | 
CC(=O)OC[C@H]1O[C@@H](n2c(SCc3cc4cc(Br)cc(Br)c4oc3=O)nc3cncnc32)[C@H](OC(C)=O)[C@@H]1OC(C)=O | 5.31 |  | 1.2 | 6 µM | 
Nc1ncnc2c1nc(SCc1cc3cc(Br)cc(Br)c3oc1=O)n2[C@@H]1O[C@H](CO)[C@@H](O)[C@H]1O | 4.59 |  | 1.4 | 36 µM | 
CC(=O)OC[C@H]1O[C@@H](n2c(=S)[nH]c3cncnc32)[C@H](OC(C)=O)[C@@H]1OC(C)=O | < 3.91 |  |  | > 122 µM | inactive
COc1cccc2cc(CSc3nc4cncnc4n3[C@@H]3O[C@H](COC(C)=O)[C@@H](OC(C)=O)[C@H]3OC(C)=O)c(=O)oc12 | 5.64 | 78.3 µg/mL (≈ 131 µM) | 3.3 | 7.5 µM | 
Nc1ncnc2c1nc(SCc1cc3cc(Br)ccc3oc1=O)n2[C@@H]1O[C@H](CO)[C@@H](O)[C@H]1O | 4.57 |  | 1.5 | 41 µM | 
CC(=O)OC[C@H]1O[C@@H](n2c(SCc3cc4cc(Cl)ccc4oc3=O)nc3cncnc32)[C@H](OC(C)=O)[C@@H]1OC(C)=O | 5.49 |  | 2.4 | 7.5 µM | 
CC1(C)O[C@@H]2[C@H](O1)[C@H](n1c(SCc3cc4cc(Br)ccc4oc3=O)nc3cncnc31)O[C@@H]2CO | 5.68 |  | 3.6 | 7.5 µM | 
CC(=O)OC[C@H]1O[C@@H](n2c(=S)n([C@@H]3O[C@H](COC(C)=O)[C@@H](OC(C)=O)[C@H]3OC(C)=O)c3ncncc32)[C@H](OC(C)=O)[C@@H]1OC(C)=O | 4.18 |  | > 1.1 | > 75 µM | inactive
COc1cccc2cc(CSc3nc4cncnc4[nH]3)c(=O)oc12 |  | 31.6 µg/mL (≈ 92.8 µM) | 4.8 | 94 µM | 
CC(=O)OC[C@H]1O[C@@H](n2c(SCc3cc4cc(Br)cc(Br)c4oc3=O)nc3cncnc32)[C@H](O)[C@@H]1O | 5.17 |  | 1 | 7 µM | 
OC[C@H]1O[C@@H](n2c(S)nc3cncnc32)[C@H](O)[C@@H]1O | < 3.75 |  |  | > 176 µM | 
COc1cccc2cc(CSc3nc4cncnc4n3[C@@H]3O[C@H](CO)[C@@H]4OC(C)(C)O[C@@H]43)c(=O)oc12 | 5.80 | 87.7 µg/mL (≈ 171 µM) | 5.2 | 8.4 µM | 
COc1cccc2cc(CSc3nc4cncnc4n3[C@@H]3O[C@H](COC(C)=O)[C@@H](O)[C@H]3O)c(=O)oc12 | 5.24 | 216 µg/mL (≈ 421 µM) | 1.9 | 11 µM | 
CC(=O)OC[C@H]1O[C@@H](n2c(SCc3cc4cc(F)ccc4oc3=O)nc3cncnc32)[C@H](OC(C)=O)[C@@H]1OC(C)=O | 5.21 |  | 1.2 | 7.6 µM | 
CC(=O)OC[C@H]1O[C@@H](n2c(SCc3cc4cc(Br)ccc4oc3=O)nc3cncnc32)[C@H](OC(C)=O)[C@@H]1OC(C)=O | 5.31 |  | 1.4 | 6.7 µM | 
COc1cccc2cc(CSc3nc4c(N)ncnc4n3[C@@H]3O[C@H](CO)[C@@H](O)[C@H]3O)c(=O)oc12 | 4.37 |  | > 2.4 | > 103 µM | 

Now from value to molecule, other results behind:

pEC50 (Hepatitis C virus [2]) | solubility [4] | Structure (SMILES) | selectivity ratio [1] | CC50 (Huh-5-2) | Activity (Hepatitis C virus [3])
< 5.05 |  | CC(=O)OC[C@H]1O[C@@H](n2c(SCc3cc4ccccc4oc3=O)nc3cncnc32)[C@H](O)[C@@H]1O | < 0.98 | 8.7 µM | 
5.37 |  | O=c1oc2ccc(Cl)cc2cc1CSc1nc2cncnc2n1[C@@H]1O[C@H](CO)[C@@H](O)[C@H]1O | 8.5 | 37 µM | 
4.55 |  | Nc1ncnc2c1nc(SCc1cc3ccccc3oc1=O)n2[C@@H]1O[C@H](CO)[C@@H](O)[C@H]1O | 1.7 | 49 µM | 
5.34 |  | CC(=O)OC[C@H]1O[C@@H](n2c(SCc3cc4cc(C)ccc4oc3=O)nc3cncnc32)[C@H](O)[C@@H]1O | 3.5 | 16 µM | 
5.55 |  | CC1(C)O[C@@H]2[C@H](O1)[C@H](n1c(SCc3cc4ccccc4oc3=O)nc3cncnc31)O[C@@H]2CO | 3.2 | 8.8 µM | 
5.23 |  | O=c1oc2c(Br)cc(Br)cc2cc1CSc1nc2cncnc2n1[C@@H]1O[C@H](CO)[C@@H](O)[C@H]1O | 6.1 | 36 µM | 
5.04 |  | Cc1ccc2oc(=O)c(CSc3nc4cncnc4n3[C@@H]3O[C@H](CO)[C@@H](O)[C@H]3O)cc2c1 | 5.1 | 46 µM | 
5.08 |  | CC(=O)OC[C@H]1O[C@@H](n2c(SCc3cc4cc(Br)ccc4oc3=O)nc3cncnc32)[C@H](O)[C@@H]1O | 3.8 | 31 µM | 
5.42 |  | CC(=O)OC[C@H]1O[C@@H](n2c(SCc3cc4cc(F)ccc4oc3=O)nc3cncnc32)[C@H](O)[C@@H]1O | 2.3 | 8.6 µM | 
5.13 |  | O=c1oc2ccc(F)cc2cc1CSc1nc2cncnc2n1[C@@H]1O[C@H](CO)[C@@H](O)[C@H]1O | 4.9 | 36 µM | 
5.26 |  | O=c1oc2ccccc2cc1CSc1nc2cncnc2n1[C@@H]1O[C@H](CO)[C@@H](O)[C@H]1O | 9.1 | 50 µM | 
5.02 | 224 µg/mL (≈ 474 µM) | COc1cccc2cc(CSc3nc4cncnc4n3[C@@H]3O[C@H](CO)[C@@H](O)[C@H]3O)c(=O)oc12 | 5 | 47 µM | 
